We go through 8 compounds from patent publication US8735593B2, “Aminopyridines useful as inhibitors of protein kinases” (Vertex Pharmaceuticals Incorporated, priority 2007, dated 2014).

For assay [1], the target named is GSK-3β (AA 1-420) (Homo sapiens (Human), UniProt P49841). Nature of the assay: GSK-3 Inhibition Assay (standard coupled enzyme system). In kind it is biochemical. Conditions: 20 μM ATP, 300 μM peptide, 20 nM GSK-3β, 30° C. On the procedure: Compounds of the present invention were screened for their ability to inhibit GSK-3β (AA 1-420) activity using a standard coupled enzyme system (Fox et al., Protein Sci. 1998, 7, 2249). Reactions were carried out in a solution containing 100 mM HEPES (pH 7.5), 10 mM MgCl2, 25 mM NaCl, 300 μM NADH, 1 mM DTT and 1.5% DMSO. Final substrate concentrations in the assay were 20 μM ATP (Sigma Chemicals, St Louis, Mo.) and 300 μM peptide (American Peptide, Sunnyvale, Calif.). Reactions were carried out at 30° C. and 20 nM GSK-3β. Final concentrations of the components of the coupled enzyme system were 2.5 mM phosphoenolpyruvate, 300 μM NADH, 30 μg/ml pyruvate kinase and 10 μg/ml lactate dehydrogenase.
Chain of GSK-3β (AA 1-420) (P49841 whole entry, species assumed, the tested form may be a part): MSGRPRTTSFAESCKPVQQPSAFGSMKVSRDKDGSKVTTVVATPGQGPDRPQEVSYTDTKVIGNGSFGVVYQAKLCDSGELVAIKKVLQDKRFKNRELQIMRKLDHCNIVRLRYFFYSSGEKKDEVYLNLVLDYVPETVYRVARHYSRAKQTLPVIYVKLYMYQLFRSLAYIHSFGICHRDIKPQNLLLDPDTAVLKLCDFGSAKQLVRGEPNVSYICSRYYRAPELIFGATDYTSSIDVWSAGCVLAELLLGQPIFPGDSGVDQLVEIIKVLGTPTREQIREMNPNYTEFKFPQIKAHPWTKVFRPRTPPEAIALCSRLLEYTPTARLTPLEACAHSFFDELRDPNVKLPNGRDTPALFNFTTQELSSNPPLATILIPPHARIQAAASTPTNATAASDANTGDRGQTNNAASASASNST
An assay stock buffer solution was prepared containing all of the reagents listed above with the exception of ATP and the test compound of the present invention. The assay stock buffer solution (175 μl) was incubated in a 96 well plate with 5 μl of the test compound of the present invention at final concentrations spanning 0.002 μM to 30 μM at 30° C. for 10 min. Typically, a 12-point titration was conducted by preparing serial dilutions (from 10 mM compound stocks) with DMSO of the test compounds of the present invention in daughter plates. The reaction was initiated by the addition of 20 μl of ATP (final concentration 20 μM). Rates of reaction were obtained using a Molecular Devices Spectramax plate reader (Sunnyvale, Calif.) over 10 min at 30° C. The Ki values were determined from the rate data as a function of inhibitor concentration.

In assay [2] the test system is β-catenin dependent TCF/LEF transcriptional activity. Nature of the assay: β-Catenin stabilization protocol, β-lactamase reporter assay in Jurkat cells. The settings on record: Homo sapiens, 460/530 ratio 50% of the maximum effect, read-out: Beta Catenin IC50. The assay is classed as cell-based. The source says: GSK-3 phosphorylation of β-catenin targets it to the proteosome for degradation. Inhibition of GSK-3 results in accumulation of β-catenin in the cytosol of cells which through interaction with the transcription factor TCF/LEF translocates to the nucleus and drives the transcription of Wnt-dependent genes. The assay is designed to determine the level of β-catenin dependent TCF/LEF transcriptional activity in a quantitative manner through the use of a β-lactamase reporter assay in Jurkat cells dosed with a compound.
Jurkat β-catenin cells are starved overnight in assay media (1% FBS, 1× Penstrep, RPMI) in the flask. The next day Jurkat β-catenin cells are seeded in 96 well flat bottom plates at a density of 50,000 cells/well in assay media in a volume of 100 ul. The compound is added to the well at a final DMSO concentration of 0.75% and incubated at 37° C. o/n. The next day, 20 uL of 6×CCF4 dye is added to the wells and incubated at room temperature for 1-2 hours. Plates are read on the Cytofluor 4000 series multiwell plate reader and the 460/530 ratio is determined. The GSK-3 IC50 for induction of β-catenin is determined by plotting the 460/530 ratio against the concentration of compound (Log scale) and using the equation of the slope to calculate the point at which the ratio is 50% of the maximum effect.
A general note: Reporter assays use an easily measured gene product as a stand-in for the process of interest.

In assay [3] the test system is amyloid-β peptide tissue levels. Conditions: mice over-expressing APP, treated over a three-week period; cited from earlier work.
In assay [4] the test system is rat brains after transient middle cerebral artery occlusion (MCAO). The settings on record: cited from earlier work.
In assay [5] the target is GSK3α TYR 279 (Homo sapiens (Human), UniProt P49840). As to the kind of experiment: GSK-3α p-TYR inhibition assay, western blotting of Jurkat cells. The assay is classed as cell-based. Conditions: compound incubated o/n, read-out: GSK3a pTYR 279: IC50. How it is done: (§1) Compounds are screened for their ability to inhibit the phosphorylation of tyrosine (TYR) residues through the use of western blotting of Jurkat cells dosed with the compounds. The phosphorylation of the specific TYR residues tested are GSK3α TYR 279 and GSK3β TYR 216.
Chain of GSK3α TYR 279 (P49840 whole entry): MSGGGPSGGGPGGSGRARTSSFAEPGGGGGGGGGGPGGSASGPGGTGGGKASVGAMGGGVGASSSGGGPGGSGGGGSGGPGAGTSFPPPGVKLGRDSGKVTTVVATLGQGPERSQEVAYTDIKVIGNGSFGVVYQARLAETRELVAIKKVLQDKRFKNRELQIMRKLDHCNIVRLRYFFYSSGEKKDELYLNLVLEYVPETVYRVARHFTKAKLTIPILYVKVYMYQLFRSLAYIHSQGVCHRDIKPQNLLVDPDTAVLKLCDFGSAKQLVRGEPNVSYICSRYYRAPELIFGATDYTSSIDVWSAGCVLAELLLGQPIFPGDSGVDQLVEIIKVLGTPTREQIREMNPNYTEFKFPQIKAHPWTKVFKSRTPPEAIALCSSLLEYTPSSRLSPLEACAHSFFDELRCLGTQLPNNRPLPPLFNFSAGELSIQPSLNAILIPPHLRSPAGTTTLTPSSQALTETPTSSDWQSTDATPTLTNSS
(§2) Jurkat cells are seeded at a density of 2×10^5 cells/well in a 12 well dish in starvation media (RPMI+1% FBS+P/S). Following starvation for 16 hours, the compound is dosed into each well at a final DMSO concentration of 0.3% and cells are incubated o/n at 37° C. 5% CO2. The next day, cells are spun down at 1500 rpm, washed with PBS, and lysed in 100 uL Laemli sample buffer with β-mercaptoethanol.
(§3) 15 microliters (uL) of cell lysates are loaded onto a 10% tris-glycine gel and run at 120 v for 2 hours or until dye front runs off of the gel. The protein is then transferred onto a PVDF membrane at 100 v for 60 min. PBST (PBS containing 0.1% Tween 20, such as 1 ml Tween per 1 L of PBS) is then made up and used for all washes and antibody incubations. The blot is blocked in 5% nonfat milk PBST for one hour.
(§4) The primary antibody (GSK-3α/β pTYR 279/216 at 1:1000 dilution Upstate cat#05-413) is then added in 5%-nonfat milk PBST overnight at 4° C. with gentle rocking. The blot is then washed in PBST for 5 min. This is then repeated 4 times. A secondary anti-mouse-HRP conjugated antibody (1:5000 dilution) is added for 60 min in 5% milk PBST. The blot is then washed in PBST for 5 min. This is also repeated 4 times. 3.0 mL of the developing solution (ECL plus Western Blotting Detection System from Amersham/GE cat# RPN2132) is made and then added. The solution is swirled over the blot for ˜30 sec. The blot is then developed using CL-Xposure clear blue X-ray film. GAPDH expression level is used as a loading control, (GAPDH antibody: santa cruz 25-778) at 1:10000 dilution.
(§5) For determination of GSK-3α and GSK-3β pTYR IC50, the density of the respective bands for each protein at specific compound concentration is compared to a no compound DMSO treated control cell sample present on each exposure. IC50 numbers are defined as the concentration of compound in which the density of the GSK-3α or GSK-3β band is 50% of the no compound control.
A general note: In western blotting, separated proteins are transferred to a membrane and probed.

The target in assay [6] is GSK3β TYR 216 (Homo sapiens (Human), UniProt P49841). Nature of the assay: GSK3β p-TYR inhibition assay, western blotting of Jurkat cells. The assay is classed as cell-based. The settings on record: compound incubated o/n, read-out: GSK3b pTYR 216: IC50. How it is done:
as §1, §2, §3, §4, §5

Setting [7] is: read-out: Ki value, inhibition of GSK-3.
[8] abbreviates: read-out: Ki value, inhibition of GSK-3 (upper bound).

Read-outs that look alike come from different tables or passages of the source. Bounds are passed on as bounds.

Chain of GSK3β TYR 216 (P49841 whole entry): as the sequence (P49841 whole entry, species assumed, the tested form may be a part) above

With `Cc1cc(Nc2ncc(C)s2)nc(-c2ccccc2Cl)c1` [Compound I-6], the Ki – broadly, a measure of affinity in units of concentration, obtained from inhibition or displacement – in assay [1] (setting [7]) was more than 10 nM; in assay [1] (setting [8]), not above 1000 nM. The IC50 – broadly, the concentration that gives 50% inhibition – in assay [2] turned out to be 1300 nM.
Regarding `[Li]` [lithium], in assay [3], the “decrease in amyloid-β peptide tissue levels” value is given as more than 50%.
With “IGF-1: insulin growth factor-1, a known GSK-3 inhibitor”, the infarct size result in assay [4] was “reduced infarct size”.
In the case of `Fc1cnc2[nH]nc(Nc3cc(C(F)(F)F)cc(-c4ccccc4Cl)n3)c2c1` [Compound I-1, N-(6-(2-chlorophenyl)-4-(trifluoromethyl)pyridin-2-yl)-5-fluoro-1H-pyrazolo[3,4-b]pyridin-3-amine], the Ki in assay [1] (setting [7]) was more than 10 nM; in assay [1] (setting [8]), not above 1000 nM. Further, the IC50 worked out at 3 nM in assay [5], 50 nM in assay [6] and 2080 nM in assay [2].
`Cc1cc(Nc2n[nH]c3ncc(F)cc23)nc(-c2ccccc2Cl)c1` [Compound I-3]: in assay [1] (setting [7]), the Ki is not above 10 nM. Besides, the figures for the IC50 in assay [5], in assay [6] and in assay [2] were 2 nM, 30 nM and 2700 nM, respectively.
As for `Cc1cc(-c2ccccc2Cl)nc(Nc2n[nH]c3ncc(F)cc23)c1C` [Compound I-4], the Ki is more than 10 nM in assay [1] (setting [7]) and not above 1000 nM in assay [1] (setting [8]). Also, the IC50 in assay [5] turned out to be 30 nM; in assay [6], 300 nM.
With `Cc1cc(Nc2n[nH]c3ncc(F)cc23)nc(-c2ccccc2)c1C` [Compound I-5], the Ki in assay [1] (setting [7]) was not above 10 nM. The IC50 worked out at 0.6 nM in assay [5], 20 nM in assay [6] and 1100 nM in assay [2].
The matching figures for `Cc1cc(Nc2n[nH]c3ncc(F)cc23)nc(-c2ccccc2Cl)c1C` [Compound I-2]: not above 10 nM, 10 nM, 200 nM and more than 10000 nM.
